Assay results published in ChEMBL document CHEMBL1201862, “PubChem BioAssay data set” (2004).
Active and inactive are the calls of the source.

Key:
Hexokinase HKDC1 = target: T1, Hexokinase HKDC1 (Homo sapiens, UniProt Q2TB90); test: analog inhibition of human HKDC1 activity – biochemical, set 2, SAR follow-up (AID 588355); type: functional
T1 sequence (Q2TB90 whole entry): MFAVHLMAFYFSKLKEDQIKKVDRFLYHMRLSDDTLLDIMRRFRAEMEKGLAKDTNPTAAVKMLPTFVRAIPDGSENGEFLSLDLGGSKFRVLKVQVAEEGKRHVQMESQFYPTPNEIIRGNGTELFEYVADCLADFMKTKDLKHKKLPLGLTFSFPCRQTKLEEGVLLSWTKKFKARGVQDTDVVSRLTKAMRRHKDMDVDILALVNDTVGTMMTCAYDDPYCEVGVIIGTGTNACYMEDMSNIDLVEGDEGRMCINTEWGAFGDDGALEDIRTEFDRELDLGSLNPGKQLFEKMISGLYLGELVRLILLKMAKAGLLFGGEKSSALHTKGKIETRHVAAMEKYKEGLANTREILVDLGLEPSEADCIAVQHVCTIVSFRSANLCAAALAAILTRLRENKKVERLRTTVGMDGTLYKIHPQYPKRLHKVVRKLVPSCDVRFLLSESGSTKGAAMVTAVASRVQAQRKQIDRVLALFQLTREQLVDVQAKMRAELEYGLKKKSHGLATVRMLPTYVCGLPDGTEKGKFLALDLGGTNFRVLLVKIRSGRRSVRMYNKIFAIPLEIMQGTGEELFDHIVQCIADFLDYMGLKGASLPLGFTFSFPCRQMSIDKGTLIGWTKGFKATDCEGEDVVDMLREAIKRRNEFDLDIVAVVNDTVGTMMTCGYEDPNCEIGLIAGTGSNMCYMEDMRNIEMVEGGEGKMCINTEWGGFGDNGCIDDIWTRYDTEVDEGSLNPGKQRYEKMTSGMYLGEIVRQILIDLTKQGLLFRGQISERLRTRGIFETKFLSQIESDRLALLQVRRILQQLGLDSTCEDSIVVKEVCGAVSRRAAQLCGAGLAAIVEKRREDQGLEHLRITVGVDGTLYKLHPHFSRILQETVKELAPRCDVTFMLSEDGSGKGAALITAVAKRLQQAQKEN

Hexokinase-1 = target: T2, Hexokinase-1 (Homo sapiens, UniProt P19367); test: hexokinase 1 activity inhibitors, potency – biochemical, set 2, resazurin fluorescence coupled readout, selectivity assay for HKDC1 inhibitor project, SAR follow-up (AID 588356); type: functional
T2 sequence (P19367 whole entry): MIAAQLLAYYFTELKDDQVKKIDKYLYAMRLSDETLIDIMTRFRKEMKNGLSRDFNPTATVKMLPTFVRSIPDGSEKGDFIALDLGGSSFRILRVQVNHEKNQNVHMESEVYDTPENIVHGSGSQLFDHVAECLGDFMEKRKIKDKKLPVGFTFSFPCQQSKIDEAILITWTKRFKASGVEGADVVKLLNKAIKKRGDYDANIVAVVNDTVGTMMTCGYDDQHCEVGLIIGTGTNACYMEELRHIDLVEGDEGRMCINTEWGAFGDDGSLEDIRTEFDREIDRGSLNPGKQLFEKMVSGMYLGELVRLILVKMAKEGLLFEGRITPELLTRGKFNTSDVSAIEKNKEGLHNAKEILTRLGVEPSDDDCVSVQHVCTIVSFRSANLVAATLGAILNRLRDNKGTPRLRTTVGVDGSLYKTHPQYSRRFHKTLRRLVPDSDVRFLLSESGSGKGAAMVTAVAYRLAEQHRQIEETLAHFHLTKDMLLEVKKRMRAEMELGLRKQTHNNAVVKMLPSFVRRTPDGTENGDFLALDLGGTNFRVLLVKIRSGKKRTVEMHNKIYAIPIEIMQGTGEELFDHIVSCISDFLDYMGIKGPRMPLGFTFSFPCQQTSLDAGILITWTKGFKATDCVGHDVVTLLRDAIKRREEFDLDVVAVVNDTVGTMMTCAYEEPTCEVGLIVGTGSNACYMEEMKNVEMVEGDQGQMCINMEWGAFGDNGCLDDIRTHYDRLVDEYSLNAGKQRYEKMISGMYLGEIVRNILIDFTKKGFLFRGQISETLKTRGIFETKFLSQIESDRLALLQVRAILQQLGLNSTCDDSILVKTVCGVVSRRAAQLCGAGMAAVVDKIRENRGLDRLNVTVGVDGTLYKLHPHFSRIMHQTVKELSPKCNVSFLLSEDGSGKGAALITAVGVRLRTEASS

Escherichia coli = test: microbe, parasite or virus in culture
Cysteine protease ATG4B = Cysteine protease ATG4B (Homo sapiens, UniProt Q9Y4P1); type: functional;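 also: Fluorescence-based dose-response confirmation assay measuring inhibition of ATG4B activity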
Phospholipase A2 = Phospholipase A2 (Homo sapiens, UniProt P04054); type: functional;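 also: confirmatory dose-response counterscreen on phospholipase A2, testing hits that came from an ultra-high-throughput screen for ATG4B inhibitors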
[1] = target: T3, Nuclear receptor subfamily 0 group B member 1 (Homo sapiens, UniProt P51843); test: Luminescence-based cell-based high throughput dose response assay for inhibitors of the orphan nuclear receptor subfamily 0, group B, member 1 (DAX1; NR0B1). [Related pubchem assays (depositor defined):AID504766, AID504790]; type: functional
T3 sequence (P51843 whole entry): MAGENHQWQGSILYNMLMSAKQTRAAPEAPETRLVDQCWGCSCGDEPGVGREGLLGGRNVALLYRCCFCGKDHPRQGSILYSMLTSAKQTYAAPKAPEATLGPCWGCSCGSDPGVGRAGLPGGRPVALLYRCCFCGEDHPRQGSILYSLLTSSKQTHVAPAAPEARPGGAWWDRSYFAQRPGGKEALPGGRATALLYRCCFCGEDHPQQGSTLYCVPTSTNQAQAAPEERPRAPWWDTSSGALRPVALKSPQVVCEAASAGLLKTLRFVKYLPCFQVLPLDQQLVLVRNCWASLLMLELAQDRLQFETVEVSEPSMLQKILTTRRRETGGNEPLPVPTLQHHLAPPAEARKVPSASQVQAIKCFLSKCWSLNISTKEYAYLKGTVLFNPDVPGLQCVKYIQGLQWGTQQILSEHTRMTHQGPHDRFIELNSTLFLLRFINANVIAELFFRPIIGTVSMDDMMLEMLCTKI

HEK293 = test: cells; type: functional, cell-based; conditions: Homo sapiens
[2] = target: Casein kinase I isoform delta (Homo sapiens, UniProt P48730); type: functional;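 also: measured as one member (CSNK1D) of a kinome panel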
Vero = test: viability of Vero cells under compound – cytotoxicity control for flavivirus capping enzyme inhibitors (AID 588742); type: functional; conditions: Chlorocebus sabaeus
[3] = target: Mitogen-activated protein kinase 13 (Homo sapiens, UniProt O15264); type: functional
[4] = viability of HCT116 lacking mutant beta-catenin – cell-based, human colon tumor, dose response (AID 1045); type: functional;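 also: HCT116 colon tumor cells with beta catenin knocked out; cells exposed to compound for 60 hours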
[5] = viability of PTEN-deleted HCT116 cells – cell-based, HCT116 PTEN knockout, dose response (AID 1047); type: functional;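 also: HCT116 colon tumor cells with PTEN knocked out; cells exposed to compound for 60 hours before readout; potency for loss of cell viability measured by luminescence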
[6] = target: Beta-2 adrenergic receptor (Homo sapiens, UniProt P07550); test: ADRB2 activation measured by internalization – cell-based, FAP fluorogen, flow cytometry, cherry pick 1, dose response (AID 588763); type: functional
[7] = target: Voltage-gated inwardly rectifying potassium channel KCNH2 (Homo sapiens, UniProt Q12809); conditions: Potency;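 also: confirmatory quantitative high-throughput screen measuring inhibition of hERG channel activity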
[8] = target: Delta-type opioid receptor (Homo sapiens, UniProt P41143); test: Counterscreen for agonists of heterodimerization of the mu 1 (OPRM1) and delta 1 (OPRD1) opioid receptors: Luminescence-based cell-based high throughput dose response assay to identify agonists of OPRD1 homodimerization. [Related pubchem assays (depositor defined):AID504326, AID504355, AID504692, AID504904, AID504905]; type: functional
[9] = target: T4, Short transient receptor potential channel 4 (Mus musculus, UniProt Q9QUQ5); test: block of DAMGO-driven TRPC4 calcium entry – cell-based, HEK293 TRPC4/mu-opioid, Fluo-4 calcium, dose response (AID 434942); type: functional;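 also: potency of inhibitors blocking the TRPC4 calcium response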
T4 sequence (Q9QUQ5 whole entry): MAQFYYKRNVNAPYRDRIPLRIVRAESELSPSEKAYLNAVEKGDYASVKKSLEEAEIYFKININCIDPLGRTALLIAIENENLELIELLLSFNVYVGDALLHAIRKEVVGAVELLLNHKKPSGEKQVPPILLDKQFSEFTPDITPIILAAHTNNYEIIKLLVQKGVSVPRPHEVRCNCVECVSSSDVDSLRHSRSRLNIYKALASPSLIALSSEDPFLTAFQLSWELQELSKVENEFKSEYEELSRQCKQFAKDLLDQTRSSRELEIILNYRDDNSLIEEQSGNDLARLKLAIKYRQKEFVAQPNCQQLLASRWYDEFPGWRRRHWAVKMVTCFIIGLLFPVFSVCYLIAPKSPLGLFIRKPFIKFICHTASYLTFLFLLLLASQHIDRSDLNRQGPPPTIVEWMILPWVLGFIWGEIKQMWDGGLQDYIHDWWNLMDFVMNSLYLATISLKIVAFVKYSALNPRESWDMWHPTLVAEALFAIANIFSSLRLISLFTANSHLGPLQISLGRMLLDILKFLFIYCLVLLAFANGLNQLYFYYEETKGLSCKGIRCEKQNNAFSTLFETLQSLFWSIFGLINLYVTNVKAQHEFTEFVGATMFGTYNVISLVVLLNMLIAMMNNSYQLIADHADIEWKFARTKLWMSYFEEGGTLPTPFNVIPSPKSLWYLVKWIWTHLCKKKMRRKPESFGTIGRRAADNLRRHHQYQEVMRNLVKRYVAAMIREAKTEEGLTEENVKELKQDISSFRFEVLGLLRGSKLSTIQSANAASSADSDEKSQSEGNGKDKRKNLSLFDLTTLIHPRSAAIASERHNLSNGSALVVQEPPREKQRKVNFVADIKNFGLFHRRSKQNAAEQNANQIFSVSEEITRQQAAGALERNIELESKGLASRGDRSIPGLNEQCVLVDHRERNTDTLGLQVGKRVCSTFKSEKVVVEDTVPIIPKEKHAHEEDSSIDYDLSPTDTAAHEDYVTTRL

[10] = target: 5-hydroxytryptamine receptor 5A (Homo sapiens, UniProt P47898); test: Counterscreen for agonists of OPRM1-OPRD1 heterodimerization: luminescence-based cell-based high throughput dose response assay to identify agonists of 5-hydroxytryptamine (serotonin) 5A receptor (HTR5A). [Related pubchem assays (depositor defined):AID504326, AID504355, AID504692, AID504904, AID504905]; type: functional
Mu-type opioid receptor = Mu-type opioid receptor (Homo sapiens, UniProt P35372); test: Counterscreen for agonists of heterodimerization of the mu 1 (OPRM1) and delta 1 (OPRD1) opioid receptors: Luminescence-based cell-based high throughput dose response assay to identify agonists of OPRM1 homodimerization.; type: functional;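 also: U2OS cells expressing OPRM1 and beta-arrestin as split beta-galactosidase partners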
[11] = target: Neuropeptides B/W receptor type 1 (Homo sapiens, UniProt P48145); test: human NPBW1 receptor blockade, IC50 – cell-based, fluorescence, dose response, set 5, late-stage follow-up (AID 588566); type: functional
[12] = target: Melanin-concentrating hormone receptor 1 (Homo sapiens, UniProt Q99705); test: Late-stage fluorescence-based counterscreen for antagonists of the G-protein coupled receptor 7 (GPR7): cell-based dose response assay to identify antagonists of the melanin-concentrating hormone receptor 1 (MCHR1) Set 5.; type: functional
Sequence of Melanin-concentrating hormone receptor 1 (Q99705 whole entry): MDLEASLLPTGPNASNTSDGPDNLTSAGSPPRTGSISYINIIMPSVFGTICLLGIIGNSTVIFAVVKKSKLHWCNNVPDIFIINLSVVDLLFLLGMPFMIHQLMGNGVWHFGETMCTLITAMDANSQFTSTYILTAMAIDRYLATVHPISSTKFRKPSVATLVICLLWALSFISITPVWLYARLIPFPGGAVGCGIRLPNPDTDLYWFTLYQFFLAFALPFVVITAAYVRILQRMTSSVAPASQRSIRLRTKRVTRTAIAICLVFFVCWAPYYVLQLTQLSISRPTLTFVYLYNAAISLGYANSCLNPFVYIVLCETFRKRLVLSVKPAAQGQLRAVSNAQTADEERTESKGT

Sequence of Beta-2 adrenergic receptor (P07550 whole entry): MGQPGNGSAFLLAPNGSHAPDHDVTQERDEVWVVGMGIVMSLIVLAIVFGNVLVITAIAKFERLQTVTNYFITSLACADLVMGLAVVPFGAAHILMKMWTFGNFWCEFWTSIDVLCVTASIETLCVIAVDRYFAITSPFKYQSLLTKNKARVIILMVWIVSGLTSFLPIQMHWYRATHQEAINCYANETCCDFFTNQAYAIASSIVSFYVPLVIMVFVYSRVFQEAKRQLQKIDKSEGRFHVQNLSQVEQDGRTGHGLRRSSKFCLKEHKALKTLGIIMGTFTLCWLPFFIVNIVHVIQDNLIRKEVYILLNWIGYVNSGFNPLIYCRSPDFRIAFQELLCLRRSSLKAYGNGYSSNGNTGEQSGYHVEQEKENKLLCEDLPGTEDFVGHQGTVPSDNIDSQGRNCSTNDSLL
Sequence of Neuropeptides B/W receptor type 1 (P48145 whole entry): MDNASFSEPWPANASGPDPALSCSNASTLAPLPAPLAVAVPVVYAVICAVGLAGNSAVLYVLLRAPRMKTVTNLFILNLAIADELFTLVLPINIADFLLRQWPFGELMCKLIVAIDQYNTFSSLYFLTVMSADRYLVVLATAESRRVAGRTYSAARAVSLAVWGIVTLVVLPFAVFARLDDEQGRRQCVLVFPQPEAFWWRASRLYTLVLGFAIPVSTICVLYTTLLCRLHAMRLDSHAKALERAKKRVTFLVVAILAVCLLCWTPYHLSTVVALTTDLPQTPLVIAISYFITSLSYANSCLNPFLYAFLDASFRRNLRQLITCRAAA
Sequence of Mitogen-activated protein kinase 13 (O15264 whole entry): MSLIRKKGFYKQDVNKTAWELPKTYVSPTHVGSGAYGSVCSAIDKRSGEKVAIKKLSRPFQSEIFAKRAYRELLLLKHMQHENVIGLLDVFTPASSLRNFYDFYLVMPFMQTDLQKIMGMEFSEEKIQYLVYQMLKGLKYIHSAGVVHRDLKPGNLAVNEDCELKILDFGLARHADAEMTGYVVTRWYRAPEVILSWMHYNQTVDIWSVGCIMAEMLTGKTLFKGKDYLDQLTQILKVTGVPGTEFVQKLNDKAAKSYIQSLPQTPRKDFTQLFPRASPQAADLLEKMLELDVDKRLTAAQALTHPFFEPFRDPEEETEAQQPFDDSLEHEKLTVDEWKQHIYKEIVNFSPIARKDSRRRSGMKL
Sequence of Casein kinase I isoform delta (P48730 whole entry, canonical isoform): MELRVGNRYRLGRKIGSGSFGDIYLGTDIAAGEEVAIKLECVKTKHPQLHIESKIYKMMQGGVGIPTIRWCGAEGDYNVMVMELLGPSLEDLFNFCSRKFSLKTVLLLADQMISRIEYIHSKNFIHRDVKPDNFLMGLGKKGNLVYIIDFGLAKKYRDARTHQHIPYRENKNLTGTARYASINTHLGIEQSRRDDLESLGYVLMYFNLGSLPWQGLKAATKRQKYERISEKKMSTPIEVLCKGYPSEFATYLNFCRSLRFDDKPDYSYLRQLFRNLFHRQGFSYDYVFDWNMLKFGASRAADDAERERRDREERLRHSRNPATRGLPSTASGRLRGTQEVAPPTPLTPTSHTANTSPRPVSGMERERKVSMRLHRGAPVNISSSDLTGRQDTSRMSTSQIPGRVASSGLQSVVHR
Sequence of 5-hydroxytryptamine receptor 5A (P47898 whole entry): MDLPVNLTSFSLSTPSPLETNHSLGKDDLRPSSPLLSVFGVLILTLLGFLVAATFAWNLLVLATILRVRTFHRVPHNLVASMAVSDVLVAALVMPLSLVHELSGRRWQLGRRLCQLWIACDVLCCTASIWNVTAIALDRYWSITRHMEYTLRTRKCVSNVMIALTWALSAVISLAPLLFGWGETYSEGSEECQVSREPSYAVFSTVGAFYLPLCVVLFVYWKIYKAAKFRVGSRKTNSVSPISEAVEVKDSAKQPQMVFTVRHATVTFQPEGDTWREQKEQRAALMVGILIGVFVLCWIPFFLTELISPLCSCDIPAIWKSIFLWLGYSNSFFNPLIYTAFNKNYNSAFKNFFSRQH
Sequence of Delta-type opioid receptor (P41143 whole entry): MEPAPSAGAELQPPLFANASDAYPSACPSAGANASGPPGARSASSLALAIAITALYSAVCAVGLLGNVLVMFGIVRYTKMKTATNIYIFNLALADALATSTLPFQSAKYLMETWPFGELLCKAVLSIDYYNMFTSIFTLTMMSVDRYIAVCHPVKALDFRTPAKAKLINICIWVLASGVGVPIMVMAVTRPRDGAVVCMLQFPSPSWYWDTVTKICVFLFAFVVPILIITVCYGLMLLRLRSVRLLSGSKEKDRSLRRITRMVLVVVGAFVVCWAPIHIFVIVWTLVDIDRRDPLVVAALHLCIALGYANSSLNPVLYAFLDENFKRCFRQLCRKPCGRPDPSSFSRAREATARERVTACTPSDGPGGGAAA
Sequence of Phospholipase A2 (P04054 whole entry): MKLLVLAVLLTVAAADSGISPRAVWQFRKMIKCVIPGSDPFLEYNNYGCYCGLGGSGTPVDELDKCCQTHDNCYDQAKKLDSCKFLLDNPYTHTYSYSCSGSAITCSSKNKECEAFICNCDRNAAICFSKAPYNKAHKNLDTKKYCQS
Sequence of Voltage-gated inwardly rectifying potassium channel KCNH2 (Q12809 whole entry): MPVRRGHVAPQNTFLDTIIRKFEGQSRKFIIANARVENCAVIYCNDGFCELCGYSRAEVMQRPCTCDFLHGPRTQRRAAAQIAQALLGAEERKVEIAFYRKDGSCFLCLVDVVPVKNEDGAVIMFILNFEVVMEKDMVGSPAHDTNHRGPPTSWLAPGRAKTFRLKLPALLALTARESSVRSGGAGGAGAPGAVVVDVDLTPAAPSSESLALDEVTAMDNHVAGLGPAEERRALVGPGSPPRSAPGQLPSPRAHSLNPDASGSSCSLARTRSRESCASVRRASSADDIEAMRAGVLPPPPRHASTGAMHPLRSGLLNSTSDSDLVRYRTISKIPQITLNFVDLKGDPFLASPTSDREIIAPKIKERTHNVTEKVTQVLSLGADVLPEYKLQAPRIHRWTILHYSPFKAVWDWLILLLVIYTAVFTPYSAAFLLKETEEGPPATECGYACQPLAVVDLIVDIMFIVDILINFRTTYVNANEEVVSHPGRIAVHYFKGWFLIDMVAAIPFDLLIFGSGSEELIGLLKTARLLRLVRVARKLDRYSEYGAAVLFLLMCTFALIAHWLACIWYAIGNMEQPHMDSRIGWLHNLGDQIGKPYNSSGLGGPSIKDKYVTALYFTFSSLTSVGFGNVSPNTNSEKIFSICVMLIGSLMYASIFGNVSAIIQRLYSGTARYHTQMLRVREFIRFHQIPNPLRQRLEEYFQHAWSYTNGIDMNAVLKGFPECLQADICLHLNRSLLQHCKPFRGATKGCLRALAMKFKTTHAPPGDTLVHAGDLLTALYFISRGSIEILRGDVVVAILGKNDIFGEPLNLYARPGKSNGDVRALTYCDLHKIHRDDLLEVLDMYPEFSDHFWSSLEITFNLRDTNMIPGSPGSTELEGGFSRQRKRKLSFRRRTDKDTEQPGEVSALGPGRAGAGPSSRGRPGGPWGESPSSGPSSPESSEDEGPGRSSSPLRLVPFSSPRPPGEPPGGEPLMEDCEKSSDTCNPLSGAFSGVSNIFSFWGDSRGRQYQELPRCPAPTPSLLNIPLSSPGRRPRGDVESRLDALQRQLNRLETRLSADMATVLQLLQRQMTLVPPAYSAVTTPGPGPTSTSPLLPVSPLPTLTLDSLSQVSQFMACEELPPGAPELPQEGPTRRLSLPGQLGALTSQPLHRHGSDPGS
Sequence of Mu-type opioid receptor (P35372 whole entry): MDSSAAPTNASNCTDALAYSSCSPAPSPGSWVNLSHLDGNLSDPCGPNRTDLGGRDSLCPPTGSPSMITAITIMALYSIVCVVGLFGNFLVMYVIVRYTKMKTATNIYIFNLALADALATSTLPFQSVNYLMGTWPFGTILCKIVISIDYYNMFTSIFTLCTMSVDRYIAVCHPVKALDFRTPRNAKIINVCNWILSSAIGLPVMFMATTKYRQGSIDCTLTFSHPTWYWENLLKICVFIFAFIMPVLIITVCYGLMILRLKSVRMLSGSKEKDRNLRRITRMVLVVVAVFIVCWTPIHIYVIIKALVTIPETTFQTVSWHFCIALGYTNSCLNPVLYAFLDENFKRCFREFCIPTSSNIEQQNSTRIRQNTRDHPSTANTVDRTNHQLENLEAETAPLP
Sequence of Cysteine protease ATG4B (Q9Y4P1 whole entry): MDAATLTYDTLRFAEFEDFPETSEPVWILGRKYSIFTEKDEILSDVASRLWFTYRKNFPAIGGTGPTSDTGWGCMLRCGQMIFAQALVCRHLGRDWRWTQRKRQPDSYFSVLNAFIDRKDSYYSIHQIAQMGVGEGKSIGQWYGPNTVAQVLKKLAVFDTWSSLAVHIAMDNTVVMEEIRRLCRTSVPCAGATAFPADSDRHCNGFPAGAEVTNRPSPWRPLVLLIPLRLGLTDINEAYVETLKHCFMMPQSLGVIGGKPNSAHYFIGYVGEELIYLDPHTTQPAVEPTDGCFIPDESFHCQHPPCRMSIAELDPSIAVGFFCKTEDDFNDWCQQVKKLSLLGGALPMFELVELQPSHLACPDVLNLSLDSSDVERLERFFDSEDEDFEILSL

**Q.** What does the source list for `CC(=O)NC1C(=O)N(Cc2ccccc2)c2ccc(Br)cc21` (stereo not given)?
**A.** IC50 (Hexokinase HKDC1): > 80 µM (inactive); IC50 (Hexokinase-1): > 80 µM (inactive)

**Q.** With `c1ccc(C2NCc3ccccc3-n3cccc32)cc1` (stereo not given) as the compound, how does the AC50 (Escherichia coli) read?
**A.** The AC50 was > 150 µM (inactive).

**Q.** Which IC50 (Cysteine protease ATG4B) does the source give for `Cc1ccc(-c2cc(C(=O)N3CCc4ccccc4C3)no2)cc1` here?
**A.** The IC50 was 13.3 µM (active).

**Q.** What about the IC50 (Phospholipase A2) of the same compound?
**A.** The IC50 was 8.83 µM (active).

**Q.** With `CC(C)(C)c1ccc(-c2noc(-c3ccno3)n2)cc1` as the compound, how does the IC50 [1] read?
**A.** Its IC50 is > 67.5 µM (inactive).

**Q.** And the IC50 (HEK293)?
**A.** The IC50 was > 67.5 µM (inactive).

**Q.** With `CC1(N2CCC(c3ccccc3)CC2)CCN(C(=O)CNc2ncnc3cc(Cl)c(Cl)cc23)C1` (stereo not given) as the compound, how does the Ki [2] read?
**A.** Its Ki is 3.16 µM (active).

**Q.** Which CC50 (Vero) does the source give for `Cc1nc2ncccn2c1-c1csc(NCc2ccco2)n1` here?
**A.** Its CC50 is > 40 µM (active).

**Q.** For `N#Cc1ncc2nc1OCCCCCOc1cc(OCCCO)c(Cl)cc1NC(=O)N2`, which Ki [3] is on record?
**A.** Its Ki is > 7.94 µM (inactive).

**Q.** Which EC50 [4] does the source give for `Cc1[nH]n(-c2ccccc2)c(=O)c1N=Nc1nccs1` here?
**A.** The EC50 was 4.29 µM (active).

**Q.** And the EC50 [5]?
**A.** The EC50 was 5.42 µM (active).

**Q.** What about the CC50 (Vero) of the same compound?
**A.** Its CC50 is > 40 µM (active).

**Q.** Which EC50 [6] does the source give for `CN(Cc1ccccc1F)c1nc(-c2cccnc2)nc2ccccc12` here?
**A.** Its EC50 is 6.08 µM (active).

**Q.** For `O=C(CN1C(=O)CCC1=O)Nc1nc(-c2nc3ccccc3s2)cs1`, which EC50 [6] is on record?
**A.** Its EC50 is 0.0444 µM (active).

**Q.** With `CCOP(=S)(OCC)Oc1nc(Cl)c(Cl)cc1Cl` [CHLORPYRIFOS] as the compound, how does the AC50 [7] read?
**A.** Its AC50 is 50.1 µM (inconclusive).

**Q.** For `CCOC(=O)C1(CCc2ccccc2)CCN(Cc2ccco2)CC1`, which EC50 [8] is on record?
**A.** Its EC50 is > 92.5 µM (inactive).

**Q.** What about the EC50 [9] of the same compound?
**A.** The EC50 was 1.19 µM (active).

**Q.** What about the EC50 [10] of the same compound?
**A.** The EC50 was > 92.5 µM (inactive).

**Q.** What about the EC50 (Mu-type opioid receptor) of the same compound?
**A.** The EC50 was > 92.5 µM (inactive).

**Q.** With `O=C(C1CCCCN1C1c2ccccc2-c2ccccc21)N1CCN(c2ccc([N+](=O)[O-])cc2)CC1` (stereo not given) as the compound, how does the IC50 [11] read?
**A.** The IC50 was > 20 µM (inactive).

**Q.** What about the IC50 [12] of the same compound?
**A.** Its IC50 is > 20 µM (inactive).

**Q.** What does the source list for `CCOC(=O)c1nn(-c2ccc(C(C)C)cc2)c(=O)c(Oc2ccc(OC)cc2)c1Cl`?
**A.** IC50 [11]: > 20 µM (inactive); IC50 [12]: > 20 µM (inactive)

**Q.** With `Cc1nn(-c2ccccc2)c(C)c1NC(=O)COC(=O)c1ccc(Cl)c(S(N)(=O)=O)c1` as the compound, how does the AC50 (Escherichia coli) read?
**A.** Its AC50 is 28.1 µM (active).
